Experimental data from the NIST ThermoML archive (doi:10.1021/je500275j).
± gives the expanded uncertainty stated by the source.

Assay: xn = mol fraction of the nth substance listed
Settings: 100 kPa, Liquid; for viscosity: Falling or rolling sphere viscometry; for mass density: Vibrating tube method

## CCC1CCCCC1 [ethylcyclohexane] + C1CCC(C2CCCCC2)CC1
293.15 K, x2 = 0
  viscosity: 0.851 ± 0.012 mPa·s
  mass density: 788.23 ± 0.15 kg/m3
293.15 K, x2 = 0.1001
  viscosity: 0.996 ± 0.012 mPa·s
  mass density: 801.13 ± 0.15 kg/m3
293.15 K, x2 = 0.2003
  viscosity: 1.164 ± 0.013 mPa·s
  mass density: 813.19 ± 0.14 kg/m3
293.15 K, x2 = 0.3001
  viscosity: 1.369 ± 0.014 mPa·s
  mass density: 824.41 ± 0.14 kg/m3
293.15 K, x2 = 0.4002
  viscosity: 1.621 ± 0.015 mPa·s
  mass density: 835.03 ± 0.14 kg/m3
293.15 K, x2 = 0.498
  viscosity: 1.848 ± 0.017 mPa·s
  mass density: 844.69 ± 0.14 kg/m3
293.15 K, x2 = 0.5996
  viscosity: 2.139 ± 0.019 mPa·s
  mass density: 854.14 ± 0.14 kg/m3
293.15 K, x2 = 0.6996
  viscosity: 2.451 ± 0.021 mPa·s
  mass density: 862.93 ± 0.14 kg/m3
293.15 K, x2 = 0.7983
  viscosity: 2.874 ± 0.024 mPa·s
  mass density: 871.02 ± 0.14 kg/m3
293.15 K, x2 = 0.901
  viscosity: 3.379 ± 0.027 mPa·s
  mass density: 879.05 ± 0.14 kg/m3
298.15 K, x2 = 0
  viscosity: 0.796 ± 0.012 mPa·s
  mass density: 784.2 ± 0.15 kg/m3
298.15 K, x2 = 0.1001
  viscosity: 0.934 ± 0.012 mPa·s
  mass density: 797.17 ± 0.15 kg/m3
298.15 K, x2 = 0.2003
  viscosity: 1.079 ± 0.013 mPa·s
  mass density: 809.29 ± 0.14 kg/m3
298.15 K, x2 = 0.3001
  viscosity: 1.264 ± 0.014 mPa·s
  mass density: 820.56 ± 0.14 kg/m3
298.15 K, x2 = 0.4002
  viscosity: 1.488 ± 0.015 mPa·s
  mass density: 831.23 ± 0.14 kg/m3
298.15 K, x2 = 0.498
  viscosity: 1.685 ± 0.016 mPa·s
  mass density: 840.93 ± 0.14 kg/m3
298.15 K, x2 = 0.5996
  viscosity: 1.94 ± 0.017 mPa·s
  mass density: 850.42 ± 0.14 kg/m3
298.15 K, x2 = 0.6996
  viscosity: 2.21 ± 0.019 mPa·s
  mass density: 859.24 ± 0.14 kg/m3
298.15 K, x2 = 0.7983
  viscosity: 2.574 ± 0.022 mPa·s
  mass density: 867.36 ± 0.14 kg/m3
298.15 K, x2 = 0.901
  viscosity: 3.003 ± 0.025 mPa·s
  mass density: 875.42 ± 0.14 kg/m3
303.15 K, x2 = 0
  viscosity: 0.748 ± 0.011 mPa·s
  mass density: 780.16 ± 0.15 kg/m3
303.15 K, x2 = 0.1001
  viscosity: 0.874 ± 0.012 mPa·s
  mass density: 793.2 ± 0.15 kg/m3
303.15 K, x2 = 0.2003
  viscosity: 1.004 ± 0.012 mPa·s
  mass density: 805.38 ± 0.15 kg/m3
303.15 K, x2 = 0.3001
  viscosity: 1.173 ± 0.013 mPa·s
  mass density: 816.7 ± 0.14 kg/m3
303.15 K, x2 = 0.4002
  viscosity: 1.372 ± 0.014 mPa·s
  mass density: 827.42 ± 0.14 kg/m3
303.15 K, x2 = 0.498
  viscosity: 1.547 ± 0.015 mPa·s
  mass density: 837.16 ± 0.14 kg/m3
303.15 K, x2 = 0.5996
  viscosity: 1.77 ± 0.016 mPa·s
  mass density: 846.72 ± 0.14 kg/m3
303.15 K, x2 = 0.6996
  viscosity: 2.005 ± 0.018 mPa·s
  mass density: 855.55 ± 0.14 kg/m3
303.15 K, x2 = 0.7983
  viscosity: 2.322 ± 0.02 mPa·s
  mass density: 863.7 ± 0.14 kg/m3
303.15 K, x2 = 0.901
  viscosity: 2.689 ± 0.022 mPa·s
  mass density: 871.8 ± 0.15 kg/m3
308.15 K, x2 = 0
  viscosity: 0.704 ± 0.011 mPa·s
  mass density: 776.11 ± 0.15 kg/m3
308.15 K, x2 = 0.1001
  viscosity: 0.82 ± 0.012 mPa·s
  mass density: 789.22 ± 0.15 kg/m3
308.15 K, x2 = 0.2003
  viscosity: 0.938 ± 0.012 mPa·s
  mass density: 801.46 ± 0.15 kg/m3
308.15 K, x2 = 0.3001
  viscosity: 1.091 ± 0.013 mPa·s
  mass density: 812.84 ± 0.14 kg/m3
308.15 K, x2 = 0.4002
  viscosity: 1.258 ± 0.014 mPa·s
  mass density: 823.6 ± 0.14 kg/m3
308.15 K, x2 = 0.498
  viscosity: 1.428 ± 0.014 mPa·s
  mass density: 833.39 ± 0.14 kg/m3
308.15 K, x2 = 0.5996
  viscosity: 1.626 ± 0.016 mPa·s
  mass density: 842.97 ± 0.14 kg/m3
308.15 K, x2 = 0.6996
  viscosity: 1.828 ± 0.017 mPa·s
  mass density: 851.86 ± 0.14 kg/m3
308.15 K, x2 = 0.7983
  viscosity: 2.106 ± 0.019 mPa·s
  mass density: 860.05 ± 0.14 kg/m3
308.15 K, x2 = 0.901
  viscosity: 2.425 ± 0.021 mPa·s
  mass density: 868.18 ± 0.15 kg/m3
313.15 K, x2 = 0
  viscosity: 0.665 ± 0.011 mPa·s
  mass density: 772.04 ± 0.15 kg/m3
313.15 K, x2 = 0.1001
  viscosity: 0.77 ± 0.011 mPa·s
  mass density: 785.22 ± 0.15 kg/m3
313.15 K, x2 = 0.2003
  viscosity: 0.879 ± 0.012 mPa·s
  mass density: 797.53 ± 0.15 kg/m3
313.15 K, x2 = 0.3001
  viscosity: 1.018 ± 0.012 mPa·s
  mass density: 808.96 ± 0.15 kg/m3
313.15 K, x2 = 0.4002
  viscosity: 1.175 ± 0.013 mPa·s
  mass density: 819.79 ± 0.14 kg/m3
313.15 K, x2 = 0.498
  viscosity: 1.32 ± 0.014 mPa·s
  mass density: 829.62 ± 0.14 kg/m3
313.15 K, x2 = 0.5996
  viscosity: 1.492 ± 0.015 mPa·s
  mass density: 839.25 ± 0.14 kg/m3
313.15 K, x2 = 0.6996
  viscosity: 1.675 ± 0.016 mPa·s
  mass density: 848.18 ± 0.14 kg/m3
313.15 K, x2 = 0.7983
  viscosity: 1.92 ± 0.017 mPa·s
  mass density: 856.4 ± 0.14 kg/m3
313.15 K, x2 = 0.901
  viscosity: 2.197 ± 0.019 mPa·s
  mass density: 864.56 ± 0.15 kg/m3
318.15 K, x2 = 0
  viscosity: 0.629 ± 0.011 mPa·s
  mass density: 767.96 ± 0.15 kg/m3
318.15 K, x2 = 0.1001
  viscosity: 0.727 ± 0.011 mPa·s
  mass density: 781.22 ± 0.15 kg/m3
318.15 K, x2 = 0.2003
  viscosity: 0.825 ± 0.012 mPa·s
  mass density: 793.59 ± 0.15 kg/m3
318.15 K, x2 = 0.3001
  viscosity: 0.951 ± 0.012 mPa·s
  mass density: 805.08 ± 0.15 kg/m3
318.15 K, x2 = 0.4002
  viscosity: 1.094 ± 0.013 mPa·s
  mass density: 815.96 ± 0.15 kg/m3
318.15 K, x2 = 0.498
  viscosity: 1.225 ± 0.013 mPa·s
  mass density: 825.85 ± 0.14 kg/m3
318.15 K, x2 = 0.5996
  viscosity: 1.381 ± 0.014 mPa·s
  mass density: 835.52 ± 0.14 kg/m3
318.15 K, x2 = 0.6996
  viscosity: 1.542 ± 0.015 mPa·s
  mass density: 844.5 ± 0.14 kg/m3
318.15 K, x2 = 0.7983
  viscosity: 1.759 ± 0.016 mPa·s
  mass density: 852.76 ± 0.15 kg/m3
318.15 K, x2 = 0.901
  viscosity: 2.002 ± 0.018 mPa·s
  mass density: 860.95 ± 0.15 kg/m3
